Laboratory results taken from patent US11419869B2, “Dosage forms and regimens for amino acid compounds” (Pliant Therapeutics, Inc., priority 2019, dated 2022).

What was measured:
Col1a1 expression [1] = test: lung slice Col1a1 expression versus DMSO control slices; conditions: FIG. 6A; compared to the DMSO vehicle control slices
COL1A1 expression [2] = test: Precision cut lung slices from human IPF explants, COL1A1 expression (Example B11); assay type: cell-based; conditions: for expression of COL1A1 (treatment alone): PCLS from 5-7 IPF lung samples, seven days, nintedanib 75 nM, pirfenidone 50 μm
Excerpt: Explanted lung tissue was obtained from human IPF subjects and inflated with agarose as described in the preceding examples. Biopsy cores were obtained from the agarose-inflated lung tissue. The biopsy cores were subjected to precision slicing to obtain several hundred μm thick. Individual slices were distributed in a multiwell culture plate and cultured for […] under control (DMSO) and test compound conditions. The viability of the slices over the course of culturing was confirmed by WST-1 assay of mitochondrial activity.
PCLS from 5-7 idopathic pulmonary fibrosis (IPF) lung tissue samples were cultured for seven days with one of: DMSO; Compound 5 at 200 nM; nintedanib at 75 nM; pirfenidone at 50 μm; a combination of Compound 5 at 200 nM and nintedanib at 75 nM; a combination of Compound 5 at 200 nM and pirfenidone at […]; or an Alk5 inhibitor at 1 μm. […] FIG. 6D is a bar graph showing relative expression of COL1A1 in precision cut lung slices (PCLS) from idopathic pulmonary fibrosis (IPF) lung tissue upon exposure to Comopund 5, clinical standard of care compounds nintedanib (Nin) and pirfenidone (Pirf), and an ALK5 inhibitor, all versus DMSO control.
PCLS from a single IPF lung tissue sample were cultured for seven days with Compound 5 at concentrations of […], 2 nM, 60 nM, 200 nM, and 1 μM, along with 0.1% DMSO control and an Alk5 inhibitor at 1 μM. […] COL1A1 expression is also graphed for the PCLS in the presence of 0.1% DMSO control, and an Alk5 inhibitor at 1 μM.

[3] = treatment of IPF; cited from earlier work
lung Col1a1 expression [4] = test: Precision cut lung slices, chronic bleomycin, versus pirfenidone and nintedanib (Example B10); assay type: cell-based, mice; conditions: 7 days culture, vs DMSO vehicle, FIG. 6A
Protocol: (§1) Mice (C57BL/6) were administered 3 U/kg of bleomycin (Teva Pharmaceuticals; North Wales, Pa.) on Day 0 and 1 U/kg of bleomycin on days 14, 28, 42 and 56 via oropharyngeal aspiration while under anesthesia. At day 70, 14 days following the final bleomycin insult, precision cut lung slices were obtained. Following euthanization, 2% low gelling temp agarose was injected into the mouse lungs via the trachea. […] The lobes were then subjected to precision slicing to obtain samples for culture using a microtome (Compresstome VF-300-0Z, Precisionary; Greenville, N.C.). Individual slices were distributed in a multiwell culture plate and cultured for 7 days under control (DMSO) and test compound conditions. The viability of the slices over the course of culturing was confirmed by WST-1 assay of mitochondrial activity.
During the culture period, slices in the control group were treated with DMSO and slices in the test group were treated with a DMSO solution of one of compound 5; nintedanib; pirfenidone; a combination of nintedanib and compound 5; a combination of pirfenidone and compound 5; or the small molecule ALK5 inhibitor. Compound 5 was […] effective to equal or exceed its respective IC50 values at αvβ6 and αvβ1. The small molecule ALK5 inhibitor was analyzed at […] its reported IC50 value. Nintendanib and pirfenidone were analyzed at concentrations 10× their reported therapeutic concentrations.

[5] = test system: Type I Collagen gene Col1a1 expression; test: Precision cut lung slices, mice under acute bleomycin exposure (Example B8); assay type: cell-based; conditions: 3 days culture, normalized to DMSO, FIG. 5A
Protocol: Mice (C57BL/6) were administered 3 U/kg of bleomycin (Teva Pharmaceuticals; North Wales, Pa.) on day 0 via oropharyngeal aspiration while under anesthesia. On day 14, precision cut lung slices were obtained. Following euthanization, 2% low gelling temp agarose was injected into the mouse lungs via the trachea. […] The lobes were then subjected to precision slicing to obtain samples for culture using a microtome (Compresstome VF-300-0Z, Precisionary; Greenville, N.C.). Individual slices were distributed in a multiwell culture plate and cultured for 3 days under control (DMSO) and test compound conditions.

lung Col1a1 expression [6] = test: Precision cut lung slices, mice under chronic bleomycin exposure (Example B9); assay type: cell-based; conditions: 7 days culture, normalized to DMSO, FIG. 5B
Protocol: as §1, with “after” for “following”
During the culture period, slices in the control group were treated with DMSO and slices in the test group were treated with a DMSO solution of one of: the selective antibody αvβ6 inhibitor 3G9; the αvβ1-selective small molecule inhibitor; a combination of the selective antibody αvβ6 inhibitor 3G9 and the αvβ1-selective small molecule inhibitor; compound 5; and the small molecule ALK5 inhibitor. The selective αvβ1 and αvβ6 integrin inhibitors were analyzed at ≥their respective IC90 concentrations for inhibition of TGF-beta activation. […]

Compound: COC(=O)c1ccc2c(c1)NC(=O)/C2=C(\Nc1ccc(N(C)C(=O)CN2CCN(C)CC2)cc1)c1ccccc1 [nintedanib]
- lung Col1a1 expression (Col1a1 expression [1]): slight increase
- expression of COL1A1 (treatment alone) (COL1A1 expression [2]): did not significantly reduce
- side effects [3]: numerous side effects
- therapeutic efficacy [3]: less therapeutic efficacy than desired
- lung slice Col1a1 expression (lung Col1a1 expression [4]): slight increase

Compound: Cc1ccc(=O)n(-c2ccccc2)c1 [pirfenidone]
- lung Col1a1 expression (Col1a1 expression [1]): slight increase
- expression of COL1A1 (treatment alone) (COL1A1 expression [2]): did not significantly reduce
- side effects [3]: numerous side effects
- therapeutic efficacy [3]: less therapeutic efficacy than desired
- lung slice Col1a1 expression (lung Col1a1 expression [4]): slight increase

Compound: Cc1cccc(-c2n[nH]cc2-c2ccc(F)c(-c3cnn(CCO)c3)c2)n1 [small molecule ALK5 inhibitor, 4-[2-Fluoro-5-[3-(6-methyl-2-pyridinyl)-1H-pyrazol-4-yl]phenyl]-1H-pyrazole-1-ethanol, reference compound]
- Type I Collagen gene Col1a1 expression [5]: greatest decrease
- lung Col1a1 expression (COL1A1 expression [2]; human IPF slices, 3 days, 3G9 ≥400 ng/mL, compound 5 179 nM, ALK5 inhibitor 1 μM, FIG. 6C): decrease in lung Col1a1 expression
- lung Col1a1 expression (lung Col1a1 expression [6]): greatest decrease
- lung slice Col1a1 expression (lung Col1a1 expression [4]): substantial, statistically significant (p<0.0001 vs vehicle) decrease
